Source: PMC12894115, “Discovery and Functional Characterization of SnFDHal, an Efficient Tryptophan 5-Halogenase from Streptomyces noursei” (Applied Biochemistry and Biotechnology, 2025)

Tested on: T1, SnFDHal
T1 construct: full-length 1,551 bp gene (about 516 residues) cloned from genomic DNA, pET28a NdeI/XhoI, His6-tagged, E. coli BL21(DE3), Ni-NTA; residues F49, K75, I78, H92, F94, Q187, E359, S460
Experiment: HPLC chlorination assay, Michaelis-Menten fit
Format: biochemical, Streptomyces noursei
Settings: NADH, FAD, E. coli Fre reductase (FADH2 regeneration), NaCl; 100 mM phosphate pH 6.0, 35 °C, 30 min
From the text: HPLC chlorination assay, Michaelis-Menten fit on SnFDHal

Structure (SMILES) | Km
N[C@@H](Cc1c[nH]c2cc(Cl)ccc12)C(=O)O [6-Cl-Trp, 6-chlorotryptophan] | 945 µM
N[C@@H](Cc1c[nH]c2c(Cl)cccc12)C(=O)O [7-Cl-Trp, 7-chlorotryptophan] | 172 µM
N[C@@H](Cc1c[nH]c2ccccc12)C(=O)O [L-Trp, L-tryptophan] | 622 µM
